Read-outs that look alike come from different tables or passages of the source.

Test [1] can be described thus: Ca2+ titration of dye fluorescence in Ca-EGTA buffers. The conditions noted are these: for Kd: read-out: Apparent Kd for Ca^2+. It is filed as binding. How it is done: The excitation bandwidth was 1.9 nm, the emission was collected at 510 nm with 4.6 nm bandwidth, and the spectra were automatically corrected for excitation lamp and monochromator characteristics using a rhodamine B quantum counter. The titration was done starting with 5 ml of 100 mM KCl, 10 mM KMOPS, 10 mM K2 H2 EGTA, 1 microM fura-2, adjusting the pH to 7.20, recording the spectrum, then discarding 0.5 ml of this solution and replacing with 0.5 ml of 100 mM KCl, 10 mM KMOPS, 10 mM K2 CaEGTA, 1 microM fura-2, readjusting the pH to 7.20, and recording the spectrum which was then in 9 mM K2 H2 EGTA and 1 mM K2 CaEGTA. Subsequent iterations to reach n mM CaEGTA, (10-n) mM EGTA, n=2-10, were done by discarding 5.0/(11-n) ml and replacing with equal volumes of the 10 mM K2 CaEGTA -1 microM fura-2 stock. After n=10 had been reached to give a free Ca^2+ between 10^-4 and 10^-5 M, addition of 1 mM CaCl2 had no further effect on the spectrum. Equality of Ca and EGTA contents in the K2 CaEGTA solution was insured by titration of K2 H2 EGTA with CaCl2 to the potentiometric endpoint measured with a Ca^2+ -selective electrode. EGTA was Fluka Chemical "puriss" grade.
The dye, 6 microM, was titrated in 115 mM KCl, 20 mM NaCl, 10 mM MOPS, 1.115 mM MgCl2, 1.115 mM K2 H2 EGTA, KOH to pH 7.050±0.004, 37° C., to which small aliquots of K2 CaEGTA were added from a micrometer syringe to raise free Ca^2+ to the values labeling each curve, in units of nM unless otherwise specified. Excitation was at 355 nm, and both excitation and emission were set to 5 nm bandwidth. These spectra are not corrected for the emission sensitivity characteristics of the Perkin Elmer MPF-44; in particular the notch at 465 nm is an instrumental artifact. Corrected emission spectra show the low-Ca 485 nm peak to be of very similar amplitude to the high-Ca 404 nm peak when excitation is at 355-356 nm.
Free [Ca^2+ ] levels were controlled by Ca-EGTA buffers assuming apparent dissociation constants for Ca-EGTA of 380 nM at pH 7.00 in 0.1M KCl, 20° C.; 151 nM at pH 7.20 in 0.1M KCl, 20° C.; 214 nM at pH 7.05 in 130 mM KCl, 20 mM NaCl at 37° C.; and 490 nM at pH 7.02 in 225 mM KCl, 25 mM NaCl at 18° C. The first three apparent dissociation constants were calculated from the tables of Martell & Smith (see reference 11) as discussed in referencess 1 and 12. The last value was freshly determined in this study because no appropriate absolute constants were available at the higher ionic strength, and existing estimates in the biological literature (see references 13-17) vary by an unacceptably large range, >0.5 log unit. For this determination we chose the classic and reliable method of pH titration in the presence and absence of excess metal ion (see references 18). Details are included in the METHODS OF SYNTHESIS section, supra.
Dissociation constants for the new indicators disclosed herein, as exemplified by chelators stil-1, stil-2, indo-1, fura-1, fura-2 and fura-3 (see Table I, infra), are in the range 100-300 nM at ionic strengths near 0.1 to 0.15. Such values are close to the dissociation constant (110 nM) of the parent compound BAPTA (see reference 6), showing that the substituents that make up the rest of the chromophores are only slightly electron-withdrawing. […] A considerable decrease in Ca^2+ binding strength is observed, to an apparent dissociation constant of 760 nM. Such a strong dependence on ionic strength is not surprising for the reaction of a tetravalent anion with a divalent cation.
where Kd is the effective dissociation constant. The fluorescence ratio R is the ratio [formula] Solving for [Ca^2+ ] yields the calibration equation: [formula] Note that FA1 /FA2 is simply the limiting value that R can have at zero [Ca^2+ ] and so may be considered Rmin, while FB1 /FB2 is the analogous limiting Rmax that the ratio has at saturating [Ca^2+ ]. […]

For test [2] the following is noted: cited from earlier work.
The conditions of test [3]: reference 26; cited from earlier work.
For test [4] the following is noted: reference 26; cited from earlier work. This is another data set of the same source.
The conditions of test [5]: cited from earlier work. This is another data set of the same source.
A short description of test [6]: Zn2+ titration of dye fluorescence in Zn-EGTA buffer, Hill plots. It is filed as binding. The conditions noted are these: for pKZn / Kd: 120 mM KCl, pH 7.12, room temperature; for Kd: read-out: dissociation constant for zinc. How it is done:
Heavy metal binding constants were measured as follows. Affinities of stil-1 and fura-2 for Zn^2+ were measured by titrating 1-2 microM dye in 120 mM KCl, 5 mM K2 H2 EGTA, 10 mM MOPS, 5 mM Tris, with 1M ZnCl2 dispensed from a micrometer syringe. […] (see reference 11).
Binding of fura-2 to some of the physiologically more important heavy divalent metals was also briefly examined. Both stil-1 and fura-2 bind zinc with dissociation constants around 1.6-2 nM (pKZn 8.6-8.8). […] Curiously Zn^2+ shifts the fura-2 spectrum the same way that Ca^2+ does, whereas Zn^2+ quenches quin2 and therefore acts oppositely to Ca^2+. Fura-2 is also better than quin2 in rejecting Mn^2+, the Mn^2+ :Ca^2+ preferences being 42-fold and 510-fold respectively (see reference 26). […] A more precise estimate was prevented by experimental scatter, which may reflect more complicated stoichiometry than 1:1 or imperfectly anaerobic conditions. Both Mn^2+ and Fe^2+ quench fura-2 as expected for metals with many unpaired electrons. For comparison, EGTA prefers Zn^2+, Mn^2+, and Fe^2+ to Ca^2+, by factors of ca. 50, ca. 20, and ca. 8-fold respectively (see reference 11).

The nature of test [7]: Direct competition between Mn2+ and Ca2+, quenching of dye fluorescence. The conditions noted are these: 100 mM KCl, 10 mM KMOPS, pH 7.2, room temperature. The class given is binding. How it is done: (§1) Since Mn^2+ and Fe^2+ quench fura-2, the affinities for these ions relative to Ca^2+ could be assessed by direct competition between the metal ions each in stoichiometric excess. […] Fluorescences of 0.5 microM fura-2 at room temperature were recorded in solutions containing 100 mM KCl, 10 mM KMOPS, pH 7.2. One series also contained 0, 0.1, or 1 mM MnSO4 and 0, 1.1, 2.2, 4.4, or 8.8 mM CaCl2; another series had 2 mM CaCl2 and 0, 0.1, 0.2, 0.5, 1, 2 mM Fe(NH4)2 (SO4)2; and a third series with 0.2 mM Fe(NH4)2 (SO4)2 and 0, 0.2, 0.4, 0.8, 2, 4, and 8 mM CaCl2. Measurements with Fe(II) were made in a cuvet sealed by a septum and continually bubbled with nitrogen; the solutions stayed clear and nearly colorless until the septum was removed after the end of the experiment, whereupon deposition of yellow Fe(OH)3 followed rapidly.
(§2) Binding of fura-2 to some of the physiologically more important heavy divalent metals was also briefly examined. Both stil-1 and fura-2 bind zinc with dissociation constants around 1.6-2 nM (pKZn 8.6-8.8). […] Curiously Zn^2+ shifts the fura-2 spectrum the same way that Ca^2+ does, whereas Zn^2+ quenches quin2 and therefore acts oppositely to Ca^2+. Fura-2 is also better than quin2 in rejecting Mn^2+, the Mn^2+ :Ca^2+ preferences being 42-fold and 510-fold respectively (see reference 26). […]

The nature of test [8]: Direct competition between Fe2+ and Ca2+, quenching of dye fluorescence. It is filed as binding. Particulars: 100 mM KCl, 10 mM KMOPS, pH 7.2, under nitrogen. How it is done:
as §1, §2

A short description of test [9]: Mg2+ titration of dye excitation spectrum in Mg-EGTA buffers. It is filed as binding. Particulars: 0.1-0.15M ionic strength, read-out: Mg^2+ dissociation constant. How it is done: An excitation spectrum was recorded of 2 microM fura-2 in 2.5 ml 32 mM KCl, 1 mM EGTA, 10 mM MOPS, adjusted with KOH to pH 7.18 while thermostatted at 20° C. Then 25 microliters of this solution was discarded and replaced by 25 microliters of a solution containing 2 microM fura-2, 104.8 mM MgCl2, 5.8 mM EGTA, 10 mM MOPS, adjusted with KOH to pH 7.18. Since both stocks had 1 mM free EGTA but the latter had 100 mM free Mg, the 99:1 v/v composite went to 1.0 mM free Mg^2+. Further iterations attained 2, 5, 10, and 20 mM free Mg^2+ by successively discarding 25.25, 76.53, 131.6, and 277.8 microliters of the mixture and replacing each with an equal volume of the high-Mg stock. Emission was collected at 510 nm, 4.6 nm bandpass, and excitation 0.9 nm bandpass.
Free [Mg^2+ ] was likewise controlled by Mg-EGTA buffers assuming an apparent dissociation constant for Mg-EGTA of 21 mM at pH 7.18 in 130 mM KCl at 20°, 8.96 mM at pH 7.05 in 130 mM KCl, 20 mM NaCl at 37°, and 99 mM at pH 7.02 in 225 mM KCl, 25 mM NaCl at 18°. Again, the last value was freshly determined in this study.
Binding constants for competing cations were most thoroughly explored for fura-2. […] Therefore fura-2 binds Mg^2+ less strongly than does quin2, whose Mg^2+ dissociation constants are about 1 mM and 2 mM respectively at 37° and ca. 22° (see references 6 and 7). […]

[10] abbreviates: 115 mM KCl, 20 mM NaCl, 10 mM KMOPS, pH 7.05, 1 mM free Mg^2+, 37° C.

For `Cc1ccc(N(CC(=O)O)CC(=O)O)c(OCCOc2cc3cc(-c4ccc(C#N)cc4)oc3cc2N(CC(=O)O)CC(=O)O)c1` [fura-3, 1-(2-(4-cyanophenyl)-6-aminobenzofuran-5-oxy)-2-(2'-amino-5'-methylphenoxy)ethane-N,N,N',N'-tetraacetic acid], in [1] (setting [10]), the Kd was 0.14 µM.

For the compound `COc1cc(N(CC(=O)O)CC(=O)O)c2nc(COc3cc(C)ccc3N(CC(=O)O)CC(=O)O)ccc2c1` [quin-2], the Kd is 0.08 µM in test [2] (100 mM KCl, 20° C., pH 7.1-7.2, data taken from reference 4, read-out: Apparent Kd for Ca^2+); around 1000 µM in [5] (37°, references 6 and 7, read-out: Mg^2+ dissociation constant); 1000 to 2000 µM in [5] (background statement, read-out: dissociation constant for Mg^2+); around 2000 µM in test [5] (ca. 22°, references 6 and 7, read-out: Mg^2+ dissociation constant). For the same compound, the “Zn^2+:Ca^2+ preference” value in test [3] is given as 3.5 orders of magnitude. Also, the “Mn^2+:Ca^2+ preference” value in test [4] is reported as 510 fold.

On to `Cc1ccc(N(CC(=O)O)CC(=O)O)c(OCCOc2cc(/C=C/c3ccc(C(=O)O)cc3)ccc2N(CC(=O)O)CC(=O)O)c1` [stil-1], for which the Kd in [1] (100 mM KCl, 20° C., pH 7.1-7.2) was found to be 0.132 µM. For the same compound, the Kd in test [1] (setting [10]) came out at 0.2 µM. Besides, in test [6], the “Zn^2+:Ca^2+ preference” value was “two orders of magnitude”, the pKZn is 8.6-8.8 and the Kd was in the range of 0.0016 to 0.002 µM.

Consider `Cc1ccc(N(CC(=O)O)CC(=O)O)c(OCCOc2cc3cc(-c4ncc(C(=O)O)o4)oc3cc2N(CC(=O)O)CC(=O)O)c1` [fura-2, 1-(2-(5'-carboxyoxazol-2'-yl)-6-aminobenzofuran-5-oxy)-2-(2'-amino-5'-methylphenoxy)ethane-N,N,N',N'-tetraacetic acid], for which, in test [7], the “Mn^2+:Ca^2+ preference” value came to 42 fold. Besides, in test [8], the “Fe^2+ binding strength relative to Ca^2+” value was “between three and ten time”. Besides, the “Zn^2+:Ca^2+ preference” value in [6] was “two orders of magnitude”. Further, the pKZn in [6] is 8.6-8.8. Further, the Kd in [6] is 0.0016 to 0.002 µM; in test [9] (20°), around 9800 µM; in test [9] (37° C.), around 5600 µM.

Take `O=C(O)CN(CC(=O)O)c1ccccc1OCCOc1ccccc1N(CC(=O)O)CC(=O)O` [BAPTA, 1,2-bis(2-aminophenoxy)ethane N,N,N',N'-tetraacetic acid]: the Kd in test [2] (parent compound, reference 6, read-out: dissociation constant (Ca^2+)) is 0.11 µM; in test [2] (reference 6, read-out: Kd (Ca^2+)), 0.1 µM.

Turning to `Cc1ccc(N(CC(=O)O)CC(=O)O)c(OCCOc2cc(/C=C/c3ccc(S(=O)(=O)N(C)C)cc3)ccc2N(CC(=O)O)CC(=O)O)c1` [stil-2], the Kd in test [1] (100 mM KCl, 37° C., pH 7.08, cis-trans mixture as saponified) was 0.224 µM.

As to `Cc1ccc(N(CC(=O)O)CC(=O)O)c(OCCOc2cc3cc(-c4ccc(C(=O)O)cc4)oc3cc2N(CC(=O)O)CC(=O)O)c1` [fura-1, 1-(2-(4-carboxyphenyl)-6-amino-benzofuran-5-oxy)-2-(2'-amino-5'-methylphenoxy)ethane-N,N,N',N'-tetraacetic acid], in [1] (setting [10]), the Kd was 0.107 µM.

As to `Cc1ccc(N(CC(=O)O)CC(=O)O)c(OCCOc2cc(-c3cc4ccc(C(=O)O)cc4[nH]3)ccc2N(CC(=O)O)CC(=O)O)c1` [indo-1, 1-(2-amino-5-[6-carboxyindolyl-2]-phenoxy)-2-(2'-amino-5'-methylphenoxy)ethane-N,N,N',N'-tetraacetic acid], in [1] (FIG. 4 data, emission 400 nm / 490 nm, 115 mM KCl, 20 mM NaCl, pH 7.050, 37° C.), the “Kd from ratio calibration equation 5” value is 0.25 µM.

The values above are taken from patent publication US4603209A, “Fluorescent indicator dyes for calcium ions” (priority 1984, dated 1986).
